Experimental data as given in US20080096990A1, “Flame Retardant Polystyrene Foam Compositions” (priority 2004, published 2008).

Test: Solubility of flame retardant in styrene
Assay type: physicochemical

Row | Structure (SMILES) | Solubility (at 40° C.) [wt %] | Solubility (at 25° C.) [wt %]
1 | O=C1NC(=O)C2CC(Br)C(Br)CC12 (stereo not drawn) [II] | >1 | 
2 | CN1C(=O)C2CC(Br)C(Br)CC2C1=O (stereo not drawn) [III] |  | >5
3 | O=C1C2C3CC(C(Br)C3Br)C2C(=O)N1CCN1C(=O)C2C3CC(C(Br)C3Br)C2C1=O (stereo not drawn) [BN-451, reference compound] |  | <0.1
